Measured values from EP0922458A1, “Potentiation of temozolomide by an ATase inhibitor” (CANCER RESEARCH CAMPAIGN TECHNOLOGY LIMITED, priority 1993, dated 1994).
pIC50: −log10 of the molar value. Where two headings read alike, the source gives them in different places.

Tests used:
[1] = system: MCF-7; assay: Repeated dose temozolomide cytotoxicity; type: cell-based; conditions: Homo sapiens
Method: (§1) Cell lines were routinely grown as monolayers in DMEM supplemented with 10% foetal calf serum, 25mM HEPES, glutamine and penicillin/streptomycin. Cytotoxicity studies were carried out in HEPES-free medium in a 5% CO2 atmosphere. 750-1000 cells/well were plated in 96 well plates and, after overnight incubation, were treated for 2 hours with or without 33 µM BG. Temozolomide or CCNU was then added for 1 hour in the same medium, the final DMSO concentration not exceeding 1%. […] For the repeat temozolomide dozing schedule, cells were given consecutive 24 hour treatments, with fresh medium each day. Assays were carried out at least in duplicate.

[2] = system: MAWI; assay: Repeated dose temozolomide cytotoxicity; type: cell-based; conditions: Homo sapiens
Method: as §1

[3] = system: control XP cells; assay: Colony forming assay with BG pretreatment; type: cell-based; conditions: 10 µM BG 3 hours before, colonies after 7 days
Method: (§2) Human ATase cDNA-transfected or control XP cells [Fan et al., Nucleic Acid. Res., 18:5723 (1990)] were grown in MEM and 1000 cells/well were plated. After a 3 hour incubation, temozolomide, freshly diluted into MEM, was added and the plates incubated for 5 days. Survivals were assayed as described by Morten et al., Carcinogenesis, 13:483 (1992). In the BG experiments, 300 cells were plated in triplicate onto 9cm plates and allowed to attach for 5 hours. BG was added (10 µM in MEM) 3 hours prior to the treatment with temozolomide which was freshly diluted into MEM containing 10 µM BG. After 7 days, colonies were strained with Giemsa and counted.

[4] = target: T1, O^6-alkylguanine DNA alkyltransferase (ATase) (Homo sapiens, UniProt P16455); assay: O^6-alkylguanine DNA alkyltransferase assay of treated cells; type: cell-based; conditions: for pIC50: three-hour incubation, read-out: concentration causing 50% reduction in ATase content; for ATase content after BG: concentrations of BG used
T1 construct: endogenous in cells; host or cells: human tumour cell lines U373, MCF-7, LOVO, MAWI (extracts of treated cells)
T1 sequence (P16455 1-207): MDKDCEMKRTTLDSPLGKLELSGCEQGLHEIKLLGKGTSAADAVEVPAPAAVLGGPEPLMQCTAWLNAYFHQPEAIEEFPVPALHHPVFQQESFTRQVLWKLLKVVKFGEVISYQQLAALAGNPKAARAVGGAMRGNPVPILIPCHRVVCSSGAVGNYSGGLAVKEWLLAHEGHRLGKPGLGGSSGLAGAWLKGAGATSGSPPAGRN
Method: This assay was carried out as described by Lee et al., Cancer Res., 51:619 (1991). Thus, varying amounts of cell extracts are incubated with DNA which contains O^6-methylguanine labelled with [^3H] in the methyl group, at preferably 37°C for 2 hours in a total volume of 300 µl of 1 mg/ml of bovine serum albumin in buffer 1. After incubation, bovine serum albumin (100µl of a 10 mg/ml solution in buffer 1) and perchloric acid (100µl of a 4 M solution) are added in rapid succession. A further 2 ml of 1M perchloric is added and the mixture heated at 75°C for 40 minutes to degrade the DNA to acid soluble material. The protein, which contains the methylated ATase, is then collected by centrifugation, washed with 4ml of 1M perchloric acid before being resuspended in 300 µl of 0.01M sodium hydroxide and dissolved in 3ml of aqueous scintillation fluid (Ecoscint A: National Diagnostics), and counted. The protein content of the cells was determined with a BioRad protein assay kit using bovine serum albumin as a standard. ATase activity is expressed as fmol methyl transferred to protein per mg of total protein in the extract.

[5] = system: ZR-75-1; assay: Cellular uptake of [^14C]-labelled temozolomide; type: in vitro ADME, human; conditions: 4°C, 200 µM labelled drug
Method: (§3) 8-carbamoyl-3-[^14C]methylimidazo[5,1-d]-1,2,3,5-tetrazin-4-(3H)-one (specific activity 26.3mCi/mmole) was kindly supplied by Dr. John Slack (Aston Molecules Ltd, Birmingham, UK). Cell suspensions (5 x 10^6/ml) were equilibrated at 4°C and treated with 200 µM of the labelled drug. 10^6 cells were pipetted into eppendorf tubes and centrifuged through 250µl of an oil mixture (4:1 "Three-in-One"/Dow Corning silicone oil). The aqueous layer was aspirated and the oil layer gently washed with a further 300 µl of saline. After centrifugation both layers were aspirated, the cell pellet dissolved in a tissue solubilizer such as Protosol® (quaternary ammonium hydroxide in toluene) and added to scintillation vials containing Optiphase® (95-99% diisopropylnaphthalene).

[6] = system: MAWI; assay: Cellular uptake of [^14C]-labelled temozolomide; type: in vitro ADME, human; conditions: 4°C, 200 µM labelled drug
Method: as §3

[7] = system: human tumour cell lines; assay: Single dose cytotoxicity, summary over the tumour cell lines; type: cell-based
Method: as §1

[8] = system: U373; assay: Repeated dose temozolomide cytotoxicity; type: cell-based, human; conditions: for pIC50: Homo sapiens, U373 MG, U373, DAY 4 of repeated daily 24 hour doses
Method: as §1

[9] = system: U373; assay: Single dose cytotoxicity (sulphorhodamine protein assay); type: cell-based, human; conditions: for pIC50: Homo sapiens, U373 MG, U373 (astrocytoma), 1 hour drug; for Ratio IC50 [-BG]/IC50 [+BG]: U373
Method: as §1

[10] = system: LS174T; assay: as above; type: cell-based, human; conditions: for pIC50: Homo sapiens, LS174T (colo-rectal), 1 hour drug; for Ratio IC50 [-BG]/IC50 [+BG]: LS174T
Method: as §1

[11] = system: MCF-7; assay: as above; type: cell-based, human; conditions: for pIC50: Homo sapiens, MCF7, MCF-7 (breast), 1 hour drug; for Ratio IC50 [-BG]/IC50 [+BG]: MCF-7
Method: as §1

[12] = system: LOVO; assay: as above; type: cell-based, human; conditions: for pIC50: Homo sapiens, LOVO (colo-rectal), 1 hour drug; for Ratio IC50 [-BG]/IC50 [+BG]: LOVO
Method: as §1

[13] = system: ZR-75-1; assay: as above; type: cell-based, human; conditions: for pIC50: Homo sapiens, ZR-75-1 (breast), 1 hour drug; for Ratio IC50 [-BG]/IC50 [+BG]: ZR-75-1
Method: as §1

[14] = system: U87MG; assay: as above; type: cell-based, human; conditions: for pIC50: Homo sapiens, U-87 MG, U87MG (astrocytoma), 1 hour drug; for Ratio IC50 [-BG]/IC50 [+BG]: U87MG
Method: as §1

[15] = system: MAWI; assay: as above; type: cell-based, human; conditions: for pIC50: Homo sapiens, MAWI (colo-rectal), 1 hour drug; for Ratio IC50 [-BG]/IC50 [+BG]: MAWI
Method: as §1

[16] = system: control XP cells (pZip); assay: Cytotoxicity in XP lines (MTT assay); type: cell-based; conditions: for pIC50: 120 h, XP line with ATase < 2 fmol/mg protein (control pZip; printed on the line 'phAT'), MTT assay, 5 days, without BG; for sensitivity of control XP cells relative to human ATase cDNA-transfected cells: pZip versus phAT XP cells, Table I
Method: as §2

[17] = system: human ATase cDNA-transfected XP cells (phAT); assay: Cytotoxicity in XP lines (MTT assay); type: cell-based; conditions: 120 h, XP line with ATase 1240 fmol/mg protein (phAT; printed on an unlabelled line), 5 days, without BG
Method: as §2

[18] = Stability in tissue culture medium (HPLC analysis); type: physicochemical; conditions: 37°C
[19] = system: SF767 cells; conditions: WO 91/13898; cited from earlier work

Cn1nnc2c(C(N)=O)ncn2c1=O [temozolomide, 8-carbamoyl-3-methylimidazo[5,1-d]-1,2,3,5,-tetrazin-4-(3H)-one]
pIC50 ([1]; MCF7, 24 h, DAY 1, with BG): 4.05 | pIC50 ([1]; MCF7, 24 h, DAY 1, without BG): 3.50 | pIC50 ([1]; MCF7, 48 h, DAY 2, with BG): 4.29 | pIC50 ([1]; MCF7, 48 h, DAY 2, without BG): 3.50 | pIC50 ([1]; MCF7, 72 h, DAY 3, with BG): 4.96 | pIC50 ([1]; MCF7, 72 h, DAY 3, without BG): 3.43 | pIC50 ([2]; 24 h, DAY 1, with BG): 3.71 | pIC50 ([2]; 24 h, DAY 1, without BG): 3.50 | pIC50 ([2]; 48 h, DAY 2, with BG): 4.23 | pIC50 ([2]; 48 h, DAY 2, without BG): 3.46 | pIC50 ([2]; 72 h, DAY 3, with BG): 4.68 | pIC50 ([2]; 72 h, DAY 3, without BG): 3.42 | pIC50 ([2]; 96 h, DAY 4, with BG): 5.14 | pIC50 ([2]; 96 h, DAY 4, without BG): 3.42 | pIC50 ([2]; 120 h, DAY 5, with BG): 6.00 | pIC50 ([2]; 120 h, DAY 5, without BG): 3.49 | effect of BG pretreatment on cytotoxicity of temozolomide [3]: no measurable effect | pIC50 ([4]; LOVO): 4.00 to 4.30 | pIC50 ([4]; MAWI): 4.00 to 4.30 | pIC50 ([4]; MCF-7): 4.00 to 4.30 | pIC50 ([4]; U373): 4.00 to 4.30 | time to complete uptake [5]: ≤ 5 min | time to complete uptake [6]: ≤ 5 min | difference in the single dose cytotoxicity between MCF-7 and the colorectal lines (LOVO and MAWI) ([7]; single dose): 3-4 fold | pIC50 ([8]; with BG): 4.74 | pIC50 ([8]; without BG): 4.29 | potentiation of temozolomide toxicity by BG ([8]; U373 cells, four 24 hour doses, BG present): 3 fold | pIC50 ([9]; 2 hours 33 µM BG before): 4.11 | pIC50 ([9]; without BG): 3.88 | Ratio IC50 [-BG]/IC50 [+BG] [9]: 1.7 | pIC50 ([10]; 2 hours 33 µM BG before): 3.20 | pIC50 ([10]; without BG): 3.06 | Ratio IC50 [-BG]/IC50 [+BG] [10]: 1.4 | pIC50 ([11]; 2 hours 33 µM BG before): 3.77 | pIC50 ([11]; without BG): 3.49 | Ratio IC50 [-BG]/IC50 [+BG] [11]: 1.9 | pIC50 ([12]; 2 hours 33 µM BG before): 3.49 | pIC50 ([12]; without BG): 3.07 | Ratio IC50 [-BG]/IC50 [+BG] [12]: 2.6 | pIC50 ([13]; 2 hours 33 µM BG before): 4.64 | pIC50 ([13]; without BG): 4.49 | Ratio IC50 [-BG]/IC50 [+BG] [13]: 1.4 | pIC50 ([14]; 2 hours 33 µM BG before): 3.88 | pIC50 ([14]; without BG): 3.76 | Ratio IC50 [-BG]/IC50 [+BG] [14]: 1.3 | pIC50 ([15]; 2 hours 33 µM BG before): 3.47 | pIC50 ([15]; without BG): 2.93 | Ratio IC50 [-BG]/IC50 [+BG] [15]: 3.5 | pIC50 [16]: 4.64 | sensitivity of control XP cells relative to human ATase cDNA-transfected cells [16]: 4-5 fold | pIC50 [17]: 4.00

Nc1nc(OCc2ccccc2)c2[nH]cnc2n1 [BG, O^6-benzylguanine]
ATase content after BG ([4]; MAWI cells): undetectable level | ATase content after BG ([4]; human ATase cDNA transfected XP fibroblasts): undetectable level | stable in tissue culture medium [18]: at least 24 hours

O=NN(CCCl)C(=O)NC1CCCCC1 [CCNU, lomustine]
increase in toxicity (sensitivity) after pretreatment with a single non-toxic dose of BG ([7]; single dose, over the tumour cell lines): ≤ 6 fold | toxicity on a molar basis relative to temozolomide ([7]; slopes of IC50 versus ATase content, Figure 1): approximately five | pIC50 ([9]; 2 hours 33 µM BG before): 4.92 | pIC50 ([9]; without BG): 4.82 | Ratio IC50 [-BG]/IC50 [+BG] [9]: 1.2 | pIC50 ([10]; 2 hours 33 µM BG before): 4.89 | pIC50 ([10]; without BG): 4.14 | Ratio IC50 [-BG]/IC50 [+BG] [10]: 5.7 | pIC50 ([11]; 2 hours 33 µM BG before): 4.51 | pIC50 ([11]; without BG): 4.15 | Ratio IC50 [-BG]/IC50 [+BG] [11]: 2.2 | pIC50 ([12]; 2 hours 33 µM BG before): 4.49 | pIC50 ([12]; without BG): 4.04 | Ratio IC50 [-BG]/IC50 [+BG] [12]: 2.9 | pIC50 ([13]; 2 hours 33 µM BG before): 4.60 | pIC50 ([13]; without BG): 4.92 | Ratio IC50 [-BG]/IC50 [+BG] [13]: 0.5 | pIC50 ([14]; 2 hours 33 µM BG before): 5.06 | pIC50 ([14]; without BG): 4.55 | Ratio IC50 [-BG]/IC50 [+BG] [14]: 3.2 | pIC50 ([15]; 2 hours 33 µM BG before): 4.52 | pIC50 ([15]; without BG): 3.88 | Ratio IC50 [-BG]/IC50 [+BG] [15]: 4.4

NC(=O)c1ncn2c(=O)n(CCCl)nnc12 [mitozolomide, 8-carbamoyl-3-(2-chloroethyl)imidazo[5,1-d]-1,2,3,5-tetrazin-4-(3H)-one]
pIC50 [16]: 6.10 | sensitivity of control XP cells relative to human ATase cDNA-transfected cells [16]: 4-5 fold | pIC50 [17]: 5.38

CC1CCC(NC(=O)N(CCCl)N=O)CC1 (stereo not drawn) [Me CCNU]
decrease in the ED50 when combined with O^6-benzylguanine [19]: 3.8 fold
